In patent US20200000825A1, “METHODS AND COMPOSITIONS FOR TREATING AND PREVENTING VIRAL INFECTIONS” (ENTERIN LABORATORIES, INC., priority 2009, published 2020):

System: HUVECs
Assay: Thrombin induced stress fiber formation in endothelial cells
Assay type: cell-based, human
Details: aminosterol 20 μM, thrombin 20 ng/ml, 2 hours
Procedure: The basic methods have been published (Williams, […] et al. 2001). HUVECs were grown on fibronectin-covered coverslips in EGM medium. […] Following a rinse, the cells were exposed to a 1:400 dilution of an FITC-goat antimurine antibody and 250 ng/ml TRITC phalloidin. The stained coverslips were visualized by fluorescence microscopy.

Row | Compound | Disruption of thrombin induced stress fiber formation
1 | CC(C)[C@@H](CC[C@@H](C)[C@H]1CC[C@H]2[C@@H]3[C@@H](O)C[C@H]4C[C@@H](NCCCNCCCCN)CC[C@]4(C)[C@H]3CC[C@]12C)OS(=O)(=O)O [Compound A] | disrupt thrombin induced stress fiber formation and inhibited thrombin-induced stress fiber formation and Yes
2 | CC(C)[C@@H](CC[C@@H](C)[C@H]1CC[C@H]2[C@@H]3[C@H](O)C[C@H]4C[C@H](NCCCNCCCCN)CC[C@]4(C)[C@H]3CC[C@]12C)OS(=O)(=O)O [Compound B] | disrupt thrombin induced stress fiber formation and inhibited thrombin-induced stress fiber formation and Yes
3 | CC(C)[C@H](CC[C@@H](C)[C@H]1CC[C@H]2[C@@H]3[C@H](O)C[C@H]4C[C@@H](NCCCNCCCCN)CC[C@]4(C)[C@H]3CC[C@]12C)OS(=O)(=O)O [Compound C] | disrupt thrombin induced stress fiber formation and inhibited thrombin-induced stress fiber formation and Yes
4 | CC(C)[C@@H](CC[C@H](C)[C@H]1CC[C@H]2[C@@H]3[C@H](O)C[C@H]4C[C@@H](NCCCNCCCCN)CC[C@]4(C)[C@H]3CC[C@]12C)OS(=O)(=O)O [Compound D] | not observed and inactive and No
5 | CC(C)[C@@H](CC[C@@H](C)[C@H]1CC[C@H]2[C@@H]3[C@H](O)C[C@H]4CC(N)CC[C@]4(C)[C@H]3CC[C@]12C)OS(=O)(=O)O (stereo partly drawn) [Compound E] | not observed and No
6 | CC(C)[C@@H](CC[C@@H](C)[C@H]1CC[C@H]2[C@@H]3[C@H](O)C[C@H]4C[C@@H](NCCCOCCCN)CC[C@]4(C)[C@H]3CC[C@]12C)OS(=O)(=O)O [Compound F] | not observed and No
